Source: ChEMBL document CHEMBL1921674, “Novel tricyclic inhibitors of IKK2: discovery and SAR leading to the identification of 2-methoxy-N-((6-(1-methyl-4-(methylamino)-1,6-dihydroimidazo[4,5-d]pyrrolo[2,3-b]pyridin-7-yl)pyridin-2-yl)methyl)acetamide (BMS-066)” (Bioorg Med Chem Lett, 2011)

Columns and labels:
[1] = target: T1, Inhibitor of nuclear factor kappa-B kinase subunit beta (Homo sapiens, UniProt O14920); test: Inhibition of human IKK2-mediated GST-IkappaBalpha protein fusion phosphorylation
T1 sequence (O14920 whole entry): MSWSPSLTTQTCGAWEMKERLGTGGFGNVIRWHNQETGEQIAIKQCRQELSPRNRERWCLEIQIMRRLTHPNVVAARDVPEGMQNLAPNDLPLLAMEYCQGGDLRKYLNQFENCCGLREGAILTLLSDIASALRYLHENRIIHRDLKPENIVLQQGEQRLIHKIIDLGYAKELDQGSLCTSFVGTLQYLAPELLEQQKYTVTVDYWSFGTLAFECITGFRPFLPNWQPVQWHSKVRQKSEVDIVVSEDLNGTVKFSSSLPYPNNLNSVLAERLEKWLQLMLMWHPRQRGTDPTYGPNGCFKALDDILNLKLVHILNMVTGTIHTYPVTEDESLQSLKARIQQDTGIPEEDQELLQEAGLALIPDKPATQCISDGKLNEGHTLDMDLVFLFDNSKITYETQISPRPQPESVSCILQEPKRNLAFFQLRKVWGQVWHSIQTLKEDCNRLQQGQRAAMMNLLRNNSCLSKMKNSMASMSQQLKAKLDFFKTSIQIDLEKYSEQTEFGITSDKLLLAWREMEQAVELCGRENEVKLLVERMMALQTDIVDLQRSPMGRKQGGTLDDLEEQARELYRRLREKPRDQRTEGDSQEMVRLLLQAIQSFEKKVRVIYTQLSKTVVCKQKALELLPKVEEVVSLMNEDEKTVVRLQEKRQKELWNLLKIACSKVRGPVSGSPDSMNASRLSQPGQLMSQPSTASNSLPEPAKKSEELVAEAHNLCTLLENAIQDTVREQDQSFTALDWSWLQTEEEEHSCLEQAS

PBMC = test: Antiinflammatory activity in human PBMC assessed as inhibition of LPS-induced TNFalpha release treated for 5 mins before LPS challenge measured after 4 hrs by ELISA; assay type: functional, cell-based
Blood = test: Antiinflammatory activity in human whole blood assessed as inhibition of LPS-induced TNFalpha release treated for 45 mins before LPS challenge measured after 6 hrs by ELISA; assay type: functional, tissue-based
[2] = Cmax in Lewis rat at 30 mg/kg, po; assay type: ADME, organism-based; parameters: dose 30 mg/kg, route oral; details: in vivo
[3] = AUC in Lewis rat at 30 mg/kg, po; assay type: ADME, organism-based; parameters: dose 30 mg/kg, route oral; details: plasma

Compound	IC50 [1] [µM]	IC50 (PBMC; Homo sapiens, PBMC) [µM]	IC50 (Blood; Homo sapiens, Blood) [µM]	IC50 (PBMC; pbmc) [µM]	IC50 (Blood) [µM]	Cmax [2] [µM]	AUC [3] [µM·h]
CNCC(=O)NCc1cccc(-c2cc3c(nc(NC)c4ncn(C)c43)[nH]2)n1	0.086	0.13	17	–	–	–	–
CNc1nc2[nH]c(-c3cccc(C(C)NC(C)=O)n3)cc2c2c1ncn2C (single isomer, unassigned; enantiomer 2)	0.009	–	–	0.3	1.6	–	–
CNc1nc2[nH]c(-c3cccc(CNC(=O)c4cnccn4)n3)cc2c2c1ncn2C	0.023	0.29	5.9	–	–	–	–
CNc1nc2[nH]c(-c3cccc(CNC(=O)c4csnn4)n3)cc2c2c1ncn2C	0.028	0.23	5.2	–	–	–	–
CNc1nc2[nH]c(-c3cccc(CNC(C)=O)c3)cc2c2c1ncn2C	0.014	–	–	–	–	–	–
CNc1nc2[nH]c(-c3cccc(C4(NC(C)=O)CC4)n3)cc2c2c1ncn2C	0.081	0.4	7	–	–	–	–
CNc1nc2[nH]c(-c3cccc(CNC(=O)CCN(C)C)n3)cc2c2c1ncn2C	0.005	0.22	1.8	–	–	–	–
CNc1nc2[nH]c(-c3cccc(CNC(=O)C4(C)CC4)n3)cc2c2c1ncn2C	0.041	0.57	–	–	–	–	–
CNc1nc2[nH]c(-c3cccc(CNC(=O)C(C)(C)C)n3)cc2c2c1ncn2C	0.066	0.31	5.5	–	–	–	–
CNc1nc2[nH]c(-c3cccc(CN(C)C(=O)COC)n3)cc2c2c1ncn2C	0.019	0.35	3.3	–	–	–	–
CNC(=O)N(C)Cc1cccc(-c2cc3c(nc(NC)c4ncn(C)c43)[nH]2)n1	0.0057	0.35	1.7	–	–	–	–
CNc1nc2[nH]c(-c3cccc(CNC(=O)CCOC)c3)cc2c2c1ncn2C	0.013	–	7	–	–	7.8	39
CNc1nc2[nH]c(-c3cccc(CNC(=O)CCOC)n3)cc2c2c1ncn2C	0.012	0.28	3.3	–	–	–	–
CNc1nc2[nH]c(-c3cccc(C(C)NC(C)=O)n3)cc2c2c1ncn2C (single isomer, unassigned)	0.016	–	1.7	0.68	–	–	–
CNc1nc2[nH]c(-c3cccc(CN(C)C(C)=O)n3)cc2c2c1ncn2C	0.014	0.23	3	–	–	–	–
CNc1nc2[nH]c(-c3cccc(CNC(=O)CO)n3)cc2c2c1ncn2C	0.013	0.53	1.8	–	–	–	–
CNc1nc2[nH]c(-c3cccc(NC(C)=O)n3)cc2c2c1ncn2C	0.13	1.9	–	–	–	–	–
CNc1nc2[nH]c(-c3cccc(N(C)CCOC)n3)cc2c2c1ncn2C	0.438	1.9	> 25	–	–	–	–
CNc1nc2[nH]c(-c3cccc(CNC(=O)C(C)(C)O)n3)cc2c2c1ncn2C	0.012	0.24	3.4	–	–	–	–
CNc1nc2[nH]c(-c3cc(CNC(C)=O)ccn3)cc2c2c1ncn2C	0.33	–	–	–	–	–	–
CNc1nc2[nH]c(-c3cccc(CNC(=O)C4CC4)n3)cc2c2c1ncn2C	0.033	0.28	5.9	–	–	–	–
CNc1nc2[nH]c(-c3cccc(NCCOC)n3)cc2c2c1ncn2C	0.02	0.35	6.4	–	–	–	–
CNc1nc2[nH]c(-c3cccc(CNC(=O)CC(C)C)n3)cc2c2c1ncn2C	0.026	0.39	15	–	–	–	–
CNc1nc2[nH]c(-c3cccc(N4CCN(C)CC4)n3)cc2c2c1ncn2C	0.128	1.5	> 25	–	–	–	–
CNc1nc2[nH]c(-c3cccc(CNC(C)=O)n3)cc2c2c1ncn2C	0.019	0.16	1.6	–	–	–	–
CCNc1nc2sc(-c3cccc([C@H](C)NC(C)=O)c3)nc2c2c1ncn2C	–	–	3.5	–	–	–	–
CCC(=O)NCc1cccc(-c2cc3c(nc(NC)c4ncn(C)c43)[nH]2)n1	0.044	0.7	6.1	–	–	–	–
